Test results from patent US20250171457A1, “NITROGEN-CONTAINING HETEROCYCLIC COMPOUND HAVING NRF2 ACTIVATION EFFECT” (CHUGAI SEIYAKU KABUSHIKI KAISHA, priority 2022, published 2025).

System: Nrf2 transcriptional activity (pARE-Luc reporter) in HepG2 cells
Assay: In vitro Nrf2 transcriptional activity measurement by ARE-dependent reporter assay in HepG2 cell
Type: cell-based, human
Conditions: Homo sapiens; HepG2 cells transfected with pARE-Luc, 4 hours at 37° C.; luciferase activity of Example 1-54 or Example 17-23 at 3.75 μM defined as 100%
Summary of the method: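 Luminescence readout (Bright-Glo) after 4 h, 37° C compound exposure of HepG2 cells carrying the ARE-luciferase vector pGL4.37. Each well converted to % response versus reference compound at 3.75 μM, and EC50 derived from dose-response curves.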

Which EC50 does the source give for `CN1CCC2(C1)CN(c1cc(Cl)c(C(=O)N3COc4c(cccc4-c4cc(N5C6CCC5COC6)c(C(=O)O)cc4F)C3)c(Cl)c1)C2` [Compound 10-1, 4-[3-[2,6-Dichloro-4-(7-methyl-2,7-diazaspiro[3.4]octan-2-yl)benzoyl]-2,4-dihydro-1,3-benzoxazin-8-yl]-5-fluoro-2-(3-oxa-8-azabicyclo[3.2.1]octan-8-yl)benzoic acid] here?
The EC50 was 6.5 nM.

How did the EC50 turn out when `C[C@@H]1[C@H](N2CCOCC2)CN1c1cc(Cl)c(C(=O)N2COc3c(cccc3-c3cc(N4C5CCC4COC5)c(C(=O)O)cc3F)C2)c(Cl)c1` [Compound 1-85, 4-[3-[2,6-Dichloro-4-[(2R,3R)-2-methyl-3-morpholin-4-ylazetidin-1-yl]benzoyl]-2,4-dihydro-1,3-benzoxazin-8-yl]-5-fluoro-2-(3-oxa-8-azabicyclo[3.2.1]octan-8-yl)benzoic acid] was run?
Its EC50 is 0.9 nM.

With `CN1CCC(Oc2cc(Cl)c(C(=O)N3COc4c(cccc4-c4cc(N5CCOCC5)c(C(=O)O)cc4F)C3)c(Cl)c2)CC1` [Compound 4-52, 4-[3-[2,6-Dichloro-4-(1-methylpiperidin-4-yl)oxybenzoyl]-2,4-dihydro-1,3-benzoxazin-8-yl]-5-fluoro-2-morpholin-4-ylbenzoic acid] as the compound, how does the EC50 read?
Its EC50 is 1.1 nM.

Which EC50 does the source give for `O=C(O)c1cc(F)c(-c2cccc3c2OCN(C(=O)c2c(Cl)cc(OC4CCOC4)cc2Cl)C3)cc1N1C2CCC1COC2` (stereo in doubt) [Compound 4-36, 4-[3-[2,6-Dichloro-4-[(3R)-oxolan-3-yl]oxybenzoyl]-2,4-dihydro-1,3-benzoxazin-8-yl]-5-fluoro-2-(3-oxa-8-azabicyclo[3.2.1]octan-8-yl)benzoic acid] here?
The EC50 was 8.7 nM.

How did the EC50 turn out when `O=C(O)c1cc(F)c(-c2cccc3c2OCN(C(=O)c2c(Cl)cc(N4CC5(CC(F)C5)C4)cc2Cl)C3)cc1N1C2CCC1COC2` [Compound 16-8, 4-[3-[2,6-Dichloro-4-(6-fluoro-2-azaspiro[3.3]heptan-2-yl)benzoyl]-2,4-dihydro-1,3-benzoxazin-8-yl]-5-fluoro-2-(3-oxa-8-azabicyclo[3.2.1]octan-8-yl)benzoic acid] was run?
Its EC50 is 3.9 nM.

For `CC1C(C)N(c2cc(Cl)c(C(=O)N3COc4c(cccc4-c4cc(N5C6CCC5COC6)c(C(=O)O)cc4F)C3)c(Cl)c2)CCN1C` (stereo not drawn) [Compound 9-24, 4-[3-[2,6-Dichloro-4-(2,3,4-trimethylpiperazin-1-yl)benzoyl]-2,4-dihydro-1,3-benzoxazin-8-yl]-5-fluoro-2-(3-oxa-8-azabicyclo[3.2.1]octan-8-yl)benzoic acid], which EC50 is on record?
Its EC50 is 2.5 nM.

How did the EC50 turn out when `Cn1nc2nccc(-c3cc(Cl)c(C(=O)N4COc5c(cccc5-c5cc(N6C7CCC6COC7)c(C(=O)O)cc5F)C4)c(Cl)c3)c2n1` [Compound 3-17, 4-[3-[2,6-Dichloro-4-(2-methyltriazolo[4,5-b]pyridin-7-yl)benzoyl]-2,4-dihydro-1,3-benzoxazin-8-yl]-5-fluoro-2-(3-oxa-8-azabicyclo[3.2.1]octan-8-yl)benzoic acid] was run?
The EC50 was 12 nM.

For `COCCN1[C@H](C)CN(c2cc(Cl)c(C(=O)N3COc4c(cccc4-c4cc(N5C6CCC5COC6)c(C(=O)O)cc4F)C3)c(Cl)c2)C[C@@H]1C` [Compound 8-4, 4-[3-[2,6-Dichloro-4-[meso-4-(2-methoxyethyl)-3,5-dimethylpiperazin-1-yl]benzoyl]-2,4-dihydro-1,3-benzoxazin-8-yl]-5-fluoro-2-(3-oxa-8-azabicyclo[3.2.1]octan-8-yl)benzoic acid], which EC50 is on record?
The EC50 was 3.6 nM.

`O=C(O)c1cc(F)c(-c2cccc3c2OCN(C(=O)c2c(Cl)cc(N4C5CCC4CN(C4COC4)C5)cc2Cl)C3)cc1N1C2CCC1COC2` [Compound 9-18, 4-[3-[2,6-Dichloro-4-[3-(oxetan-3-yl)-3,8-diazabicyclo[3.2.1]octan-8-yl]benzoyl]-2,4-dihydro-1,3-benzoxazin-8-yl]-5-fluoro-2-(3-oxa-8-azabicyclo[3.2.1]octan-8-yl)benzoic acid] was tested. Which EC50 did it give?
Its EC50 is 6.4 nM.
